Experimental data reported in patent publication US4465672A, “Stable S-adenosylmethionine salts, the process for their preparation, and therapeutic compositions which contain them as active principle” (Bioresearch S.p.A., priority 1981, dated 1984).
Read-outs that look alike come from different tables or passages of the source.

Key:
physchem = details: for DEGRADATION AT 45° C. AFTER 120 days: 2880 h; for DEGRADATION AT 45° C. AFTER 180 days: 4320 h; for DEGRADATION AT 45° C. AFTER 240 days: 5760 h; for DEGRADATION AT 45° C. AFTER 360 days: 8640 h; for DEGRADATION AT 45° C. AFTER 60 days: 1440 h
Method: The residual SAM percentage at the times indicated was determined by the new method described hereinafter, which ensures maximum accuracy of measurements in that it enables the SAM to be totally separated from all possible degradation products. The present method for determining the SAM is based on the use of HPLC.

[1] = Residual moisture of the lyophilised salt; type: physicochemical
[2] = Wide pharmacological screening trial; details: independent of the anion bonded to the SAM
[3] = prior art salts, cited from earlier work

Structure (SMILES) | DEGRADATION AT 45° C. AFTER 240 days (physchem) | DEGRADATION AT 45° C. AFTER 360 days (physchem) | residual moisture ([1]; Tables 1 to 4) | other results
C[S+](CCC(N)C(=O)[O-])CC1OC(n2cnc3c(N)ncnc32)C(O)C1O (stereo not drawn) [SAM.n CH3 SO3 H, n=2] | 100% | 100% | 0.5% | DEGRADATION AT 45° C. AFTER 120 days (physchem): 100%; DEGRADATION AT 45° C. AFTER 180 days (physchem): 100%
C[S+](CCC(N)C(=O)[O-])CC1OC(n2cnc3c(N)ncnc32)C(O)C1O (stereo not drawn) [drawing 5, n=2] | 100% | 100% | 0.5% | DEGRADATION AT 45° C. AFTER 120 days (physchem): 100%; DEGRADATION AT 45° C. AFTER 180 days (physchem): 100%
C[S+](CCC(N)C(=O)[O-])CC1OC(n2cnc3c(N)ncnc32)C(O)C1O (stereo not drawn) [SAM.5CH3 --C6 H4 --SO3 H] | – | – | – | residual moisture ([1]; Tables 1 to 4, n=5): 1.5%
C[S+](CCC(N)C(=O)[O-])CC1OC(n2cnc3c(N)ncnc32)C(O)C1O (stereo not drawn) [SAM.n CH3 SO3 H, n=3] | 100% | 100% | 0.8% | –
C[S+](CCC(N)C(=O)[O-])CC1OC(n2cnc3c(N)ncnc32)C(O)C1O (stereo not drawn) [SAM.5CH3 SO3 H] | – | – | – | degraded at 8640 h (physchem; DEGRADATION AT 45° C. AFTER 360 DAYS): 5%; residual moisture ([1]; Tables 1 to 4, listed as SAM.n CH3 SO3 H, n=5): 1.5%; residual moisture ([1]; with or without lyophilisation support (Tables 5, 6)): 1.5%; activity and toxicity characteristics [2]: highly interesting activity and toxicity characteristics
C[S+](CCC(N)C(=O)[O-])CC1OC(n2cnc3c(N)ncnc32)C(O)C1O (stereo not drawn) [SAM.1.5 H2 SO4.n CH3 SO3 H, n=2] | – | – | 1.5% | –
C[S+](CCC(N)C(=O)[O-])CC1OC(n2cnc3c(N)ncnc32)C(O)C1O (stereo not drawn) [drawing 6, n=3] | – | – | 2% | –
C[S+](CCC(N)C(=O)[O-])CC1OC(n2cnc3c(N)ncnc32)C(O)C1O (stereo not drawn) [SAM.n CH3 SO3 H, n=6] | – | – | 2% | –
C[S+](CCC(N)C(=O)[O-])CC1OC(n2cnc3c(N)ncnc32)C(O)C1O (stereo not drawn) [drawing 6, n=1] | – | – | 1% | –
C[S+](CCC(N)C(=O)[O-])CC1OC(n2cnc3c(N)ncnc32)C(O)C1O (stereo not drawn) [disulphatediparatoluene sulphonate, reference compound] | – | – | – | temperature up to which the salt is stable [3]: up to 45 °C
C[S+](CCC(N)C(=O)[O-])CC1OC(n2cnc3c(N)ncnc32)C(O)C1O (stereo not drawn) [drawing 5, n=6] | – | – | 2% | –
C[S+](CCC(N)C(=O)[O-])CC1OC(n2cnc3c(N)ncnc32)C(O)C1O (stereo not drawn) [drawing 6, n=2] | – | – | 1.5% | –
C[S+](CCC(N)C(=O)[O-])CC1OC(n2cnc3c(N)ncnc32)C(O)C1O (stereo not drawn) [SAM.1.5 H2 SO4.n CH3 SO3 H, n=3] | – | – | 2% | –
C[S+](CCC(N)C(=O)[O-])CC1OC(n2cnc3c(N)ncnc32)C(O)C1O (stereo not drawn) [drawing 5, n=1] | 100% | 100% | 0.2% | DEGRADATION AT 45° C. AFTER 60 days (physchem): 100%; DEGRADATION AT 45° C. AFTER 120 days (physchem): 100%; DEGRADATION AT 45° C. AFTER 180 days (physchem): 100%
C[S+](CCC(N)C(=O)[O-])CC1OC(n2cnc3c(N)ncnc32)C(O)C1O (stereo not drawn) [SAM.1.5 H2 SO4.n CH3 SO3 H, n=1] | – | – | 1% | –
C[S+](CCC(N)C(=O)[O-])CC1OC(n2cnc3c(N)ncnc32)C(O)C1O (stereo not drawn) [drawing 5, n=3] | 100% | 100% | 0.8% | temperature up to which the salt is stable ([3]; listed as triparatoluene sulphonate): up to 25 °C
C[S+](CCC(N)C(=O)[O-])CC1OC(n2cnc3c(N)ncnc32)C(O)C1O (stereo not drawn) [SAM.n CH3 SO3 H, n=4] | – | – | 1% | –
C[S+](CCC(N)C(=O)[O-])CC1OC(n2cnc3c(N)ncnc32)C(O)C1O (stereo not drawn) [drawing 5, n=4] | – | – | 1% | –
C[S+](CCC(N)C(=O)[O-])CC1OC(n2cnc3c(N)ncnc32)C(O)C1O (stereo not drawn) [SAM.n CH3 SO3 H, n=1] | 100% | 100% | 0.2% | DEGRADATION AT 45° C. AFTER 60 days (physchem): 100%; DEGRADATION AT 45° C. AFTER 120 days (physchem): 100%; DEGRADATION AT 45° C. AFTER 180 days (physchem): 100%
